Measurements taken from patent US9394285B2 (Pfizer Inc., priority 2013, dated 2016).

Biological target: human AMPK (full-length γ1, β1 and α1 subunits) (Homo sapiens (Human), UniProt Q13131+Q9Y478)
Assay: AMPK in vitro biochemical assay (33P-based, SAMS peptide, PP2A dephosphorylation)
Details: for EC50: activation of phosphorylated AMPK, 33P-ATP, SAMS peptide, PP2A treatment, 4-parameter fit; for Emax: counts as % of positive control wells (enzyme, allosteric activator or AMP, PP2A and substrate), read-out: Maximum
From the text: We designed a tricistronic AMPK expression construct that included open reading frames encoding the full-length γ1, β1 and α1 subunits of human AMPK with a ribosome-binding site (RBS) ahead of each coding region and subcloned this into pET-14b expression vector (Novagen, Madison, Wis.) using standard molecular biology techniques. AMPK tricistronic construct was transformed into E. coli BL21-CodonPlus™ (DE3)-RIPL strain (Stratagene) and transformants were selected on LB (Luria-Bertani) agar plates containing ampicillin (100 μg/ml). […] Optical density sample measurements were made on an UltroSpec 2000 spectrophotometer (Pharmacia Biotech) at 600 nm. When the cell density reached ˜0.9 OD, the temperature was reduced to 18° C. and the culture was induced at 18° C. with 0.1 mM Isopropylthiogalactoside (IPTG). […] The cell pellets were aliquoted into four portions, flash frozen in liquid nitrogen and were stored at −80° C. until purification. For purification, frozen cell paste was thawed and resuspended in 50 ml lysis buffer (50 mM Tris, pH 8.0, 150 mM NaCl, 10% glycerol, 2 mM Tris-2-carboxyethyl phosphine (TCEP), 20 mM imidazole and 0.001% Triton X-100). After sonication, insoluble material was removed by centrifugation at 15,000 rpm in a Sorvall® RC5 plus centrifuge for 30 min at 4° C. and the supernatant was loaded onto a 5 ml HisTrap™ HP column (GE Healthcare, Piscataway, N.J.) and washed with five column volumes of lysis buffer. Bound proteins were eluted using an elution buffer containing 300 mM imidazole. Fractions containing AMPK subunits were pooled based on SDS-10% PAGE analysis and dialyzed overnight in dialysis buffer (50 mM Tris, pH 8.0, 150 mM NaCl, 10% glycerol, 2 mM TCEP, and 0.001% Triton X-100). […] The phosphorylated AMPK complex was re-purified on HisTrap™ HP column as before, dialyzed over night in dialysis buffer. The phosphorylated AMPK complex was further purified by gel filtration chromatography with a Superdex 200 HiLoad 16/60 column (GE Healthcare) in SEC buffer (50 mM Tris, pH 8.0, 150 mM NaCl, 10% glycerol, 2 mM TCEP, and 0.001% Triton X-100).
The harvest time (72 hours post infection) was indicated by percent cell viability (to 85-90%) and increased cell diameter (3-4 μm). […] For purification, the cell paste was resuspended in 500 mL lysis buffer (50 mM Tris pH 8.0, 150 mM NaCl, 25 mM imidazole, 10% glycerol, 2 mM MgCl2, 2 mM TCEP+protease inhibitor cocktail. After lysis, cellular debris was removed by centrifugation at 36K×g for 1 hour. The resulting supernatant was filtered at 0.2 micron before applying to a 1 mL nickel charged IMAC column (HisTrap, GE). The bound resin was washed to baseline with 50 CV of 50 mM Tris pH 8.0, 150 mM NaCl, 25 mM imidazole, 10% glycerol, 2 mM MgCl2, 2 mM TCEP before eluting over a 20 CV gradient to 100% with wash buffer containing 500 mM imidazole. Pooled fractions containing PP2A were combined and diluted 10× with 50 mM Tris pH 8.0, 10% glycerol, 1 mM TCEP and applied to a 1 mL AIEX resin (HiTrap QFF, GE). The bound resin was washed with dilution buffer and PP2A was eluted over a 20 CV gradient to 100% 50 mM Tris pH 8.0, 500 mM NaCl, 10% glycerol, 1 mM TCEP and was further diluted 1:1 with 50 mM Tris pH 8.0, 150 mM NaCl, 10% glycerol, and 1 mM TCEP buffer.
The biochemical EC50 (half-maximal concentration required for full activation) of compounds for the activation of AMPK was evaluated by ^33P-based assay using SAMS peptide (commercially available) derived from ACC-1. Twenty μl of phosphorylated AMPK diluted in assay buffer, (50 mM HEPES, 1 mM EGTA, 10 mM MgCl2, 0.25 mM DTT, 0.01% Tween-20, 0.01% BSA (pH 7.5)) was added to 384 well plates containing 1 μL of test compound. Following a fifteen minute room temperature incubation, 10 μL of protein phosphatase PP2A was added to the plate to dephosphorylate pThr172 of AMPK. […] The reaction was terminated after 60 minutes incubation at room temperature by the addition of 15 μL of 2% H3PO4.

Sequence of human AMPK (full-length γ1, β1 and α1 subunits) (Q13131 whole entry): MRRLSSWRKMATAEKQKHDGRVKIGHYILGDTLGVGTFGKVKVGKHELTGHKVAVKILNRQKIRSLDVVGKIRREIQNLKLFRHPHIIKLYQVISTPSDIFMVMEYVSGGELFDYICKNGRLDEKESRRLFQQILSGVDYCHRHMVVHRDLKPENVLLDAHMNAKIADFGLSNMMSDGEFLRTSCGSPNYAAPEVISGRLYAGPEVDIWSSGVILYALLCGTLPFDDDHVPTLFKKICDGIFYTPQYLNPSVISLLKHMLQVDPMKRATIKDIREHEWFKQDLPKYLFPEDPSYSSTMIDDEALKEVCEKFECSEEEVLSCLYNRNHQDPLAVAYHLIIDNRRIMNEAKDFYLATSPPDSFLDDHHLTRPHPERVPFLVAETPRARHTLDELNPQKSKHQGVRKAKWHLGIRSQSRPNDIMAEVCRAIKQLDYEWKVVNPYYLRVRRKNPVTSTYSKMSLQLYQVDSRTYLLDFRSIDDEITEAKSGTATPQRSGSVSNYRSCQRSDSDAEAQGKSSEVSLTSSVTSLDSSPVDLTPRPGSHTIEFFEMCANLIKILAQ
Sequence of human AMPK (full-length γ1, β1 and α1 subunits) (Q9Y478 whole entry): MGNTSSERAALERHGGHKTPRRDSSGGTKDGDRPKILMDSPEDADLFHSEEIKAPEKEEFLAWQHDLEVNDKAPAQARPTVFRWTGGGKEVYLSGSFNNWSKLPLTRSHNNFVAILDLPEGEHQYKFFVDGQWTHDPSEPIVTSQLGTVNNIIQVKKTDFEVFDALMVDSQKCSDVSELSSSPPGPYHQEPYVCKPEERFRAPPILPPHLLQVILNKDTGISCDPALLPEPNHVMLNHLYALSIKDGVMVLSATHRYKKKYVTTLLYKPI
Sequence of human AMPK (full-length γ1, β1 and α1 subunits) (P54619 whole entry partner): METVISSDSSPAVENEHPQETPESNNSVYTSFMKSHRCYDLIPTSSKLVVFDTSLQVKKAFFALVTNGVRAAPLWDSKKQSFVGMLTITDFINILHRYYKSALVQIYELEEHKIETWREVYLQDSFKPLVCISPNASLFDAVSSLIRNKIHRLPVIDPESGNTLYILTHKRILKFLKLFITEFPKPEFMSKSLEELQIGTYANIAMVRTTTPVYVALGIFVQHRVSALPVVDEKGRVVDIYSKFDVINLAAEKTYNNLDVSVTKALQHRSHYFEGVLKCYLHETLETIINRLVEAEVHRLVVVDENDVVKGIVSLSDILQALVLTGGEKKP

SMILES	EC50 [nM]	Emax [%]
CS(=O)(=O)N1CCC(c2ccc(-c3cc4c(C(=O)O)c[nH]c4cc3Cl)cc2)C1 (stereo not shown) [Example 16, 6-chloro-5-{4-[1-(methylsulfonyl)pyrrolidin-3-yl]phenyl}-1H-indole-3-carboxylic acid]	412	114
O=C(O)c1c[nH]c2cc(Cl)c(-c3ccc(C4CCNC4)cc3)cc12 (stereo not shown) [Example 17, 6-chloro-5-[4-(pyrrolidin-3-yl)phenyl]-1H-indole-3-carboxylic acid]	126	107
O=C(O)c1c[nH]c2cc(Cl)c(-c3ccc(OC4COC4)cc3)cc12 [Example 18, 6-chloro-5-[4-(oxetan-3-yloxy)phenyl]-1H-indole-3-carboxylic acid]	181	92
O=C(O)c1c[nH]c2cc(Cl)c(-c3ccc(OCCN4CCOCC4)cc3)cc12 [Example 19, 6-chloro-5-{4-[2-(morpholin-4-yl)ethoxy]phenyl}-1H-indole-3-carboxylic acid]	383	96
O=C(O)c1c[nH]c2cc(F)c(-c3ccc(C4(O)COC4)cc3)c(F)c12 [Example 20, 4,6-difluoro-5-[4-(3-hydroxyoxetan-3-yl)phenyl]-1H-indole-3-carboxylic acid]	53.6	62
CC(C)(CO)COc1ccc(-c2cc3c(C(=O)O)c[nH]c3cc2Cl)cc1 [Example 21]	93.5	86
O=C(O)c1c[nH]c2cc(F)c(-c3ccc(C4(CO)CC4)cc3)c(F)c12 [Example 22, 4,6-difluoro-5-(4-(1-(hydroxymethyl)cyclopropyl)phenyl)-1H-indole-3-carboxylic acid]	13.7	122
O=C(O)c1c[nH]c2cc(F)c(-c3ccc(OCCO)cc3)c(F)c12 [Example 24, 4,6-difluoro-5-[4-(2-hydroxyethoxy)phenyl]-1H-indole-3-carboxylic acid]	252	91
COc1cc(-c2cc3c(C(=O)O)c[nH]c3cc2F)ccc1C1(O)CCC1 [Example 25, 6-fluoro-5-[4-(1-hydroxycyclobutyl)-3-methoxyphenyl]-1H-indole-3-carboxylic acid]	111	78
CC(C)(CO)c1ccc(-c2c(F)cc3[nH]cc(C(=O)O)c3c2F)cc1 [Example 26, 4,6-difluoro-5-[4-(1-hydroxy-2-methylpropan-2-yl)phenyl]-1H-indole-3-carboxylic acid]	124	74
Cc1cc2[nH]cc(C(=O)O)c2cc1-c1ccc(C2(CO)CC2)cc1 [Example 27, 5-{4-[1-(hydroxymethyl)cyclopropyl]phenyl}-6-methyl-1H-indole-3-carboxylic acid]	36.9	107
O=C(O)c1c[nH]c2cc(F)c(-c3ccc(OCCCO)cc3)c(F)c12 [Example 28, 4,6-difluoro-5-[4-(3-hydroxypropoxy)phenyl]-1H-indole-3-carboxylic acid]	1080	98
COc1cccc(-c2cc3c(C(=O)O)c[nH]c3cc2Cl)c1 [Example 29, 6-chloro-5-(3-methoxyphenyl)-1H-indole-3-carboxylic acid]	383	101
CCOc1ccc(-c2cc3c(C(=O)O)c[nH]c3cc2Cl)cc1 [Example 31, 6-Chloro-5-(4-ethoxyphenyl)-1H-indole-3-carboxylic acid]	130	104
COc1ccc(-c2cc3c(C(=O)O)c[nH]c3cc2C#N)cc1 [Example 32, 6-Cyano-5-(4-methoxyphenyl)-1H-indole-3-carboxylic acid]	570	97
COc1ccc(-c2cc3c(C(=O)O)c[nH]c3cc2Cl)cc1 [Example 33, 6-Chloro-5-(4-methoxy-phenyl)-1H-indole-3-carboxylic acid]	85.3	83
COc1ccc(-c2cc3c(C(=O)O)c[nH]c3cc2F)cc1 [Example 34, 6-Fluoro-5-(4-methoxy-phenyl)-1H-indole-3-carboxylic acid]	315	122
Cc1cc2[nH]cc(C(=O)O)c2cc1-c1ccc(C2(O)CCC2)cc1 [Example 35, 5-[4-(1-hydroxycyclobutyl)phenyl]-6-methyl-1H-indole-3-carboxylic acid]	74.2	72
CC(C)(CO)c1ccc(-c2cc3c(C(=O)O)c[nH]c3cc2Cl)cc1 [Example 36, 6-chloro-5-[4-(1-hydroxy-2-methylpropan-2-yl)phenyl]-1H-indole-3-carboxylic acid]	7.1	70
COc1ccc(-c2cc3c(C(=O)O)c[nH]c3cc2Cl)cc1OC [Example 37, 6-chloro-5-(3,4-dimethoxyphenyl)-1H-indole-3-carboxylic acid]	248	81
Cc1cc(C2(O)CCC2)ccc1-c1cc2c(C(=O)O)c[nH]c2cc1Cl [Example 40, 6-chloro-5-[4-(1-hydroxycyclobutyl)-2-methylphenyl]-1H-indole-3-carboxylic acid]	821	78
Cc1cc(-c2cc3c(C(=O)O)c[nH]c3cc2Cl)ccc1C1(O)CCC1 [Example 41, 6-chloro-5-[4-(1-hydroxycyclobutyl)-3-methylphenyl]-1H-indole-3-carboxylic acid]	9.6	62
O=C(O)c1c[nH]c2cc(Cl)c(-c3ccc(C4(O)CCC4)c(F)c3)cc12 [Example 42, 6-chloro-5-[3-fluoro-4-(1-hydroxycyclobutyl)phenyl]-1H-indole-3-carboxylic acid]	21.8	65
O=C(O)c1c[nH]c2cc(Cl)c(-c3ccc(-c4ccccc4)cc3)cc12 [Example 43, 5-(biphenyl-4-yl)-6-chloro-1H-indole-3-carboxylic acid]	1.7	68
COc1ccc(-c2cc3c(C(=O)O)c[nH]c3cc2Cl)c(F)c1 [Example 44, 6-chloro-5-(2-fluoro-4-methoxyphenyl)-1H-indole-3-carboxylic acid]	85	78
CS(=O)(=O)N1CCC1c1ccc(-c2cc3c(C(=O)O)c[nH]c3cc2Cl)cc1 (stereo not shown) [Example 45, 6-chloro-5-{4-[1-(methylsulfonyl)azetidin-2-yl]phenyl}-1H-indole-3-carboxylic acid]	225	94
O=C(O)c1c[nH]c2cc(Cl)c(-c3ccc(OC[C@@H]4CCCN4)cc3)cc12 [Example 47, 6-chloro-5-{4[(2S)-pyrrolidin-2-ylmethoxy]phenyl}-1H-indole-3-carboxylic acid]	65.3	96
O=C(O)c1c[nH]c2cc(Cl)c(-c3ccc(OCCN4CCNCC4)cc3)cc12 [Example 48, 6-chloro-5-{4-[2-(piperazin-1-yl)ethoxy]phenyl}-1H-indole-3-carboxylic acid]	110	89
O=C(O)c1c[nH]c2cc(Cl)c(-c3ccc(O[C@H]4CCCC[C@@H]4O)cc3)cc12 [Example 50, 6-chloro-5-(4-{[(1S,2S)-2-hydroxycyclohexyl]oxy}phenyl)-1H-indole-3-carboxylic acid]	204	79
